Measured values from patent US9487557B2, “Peptides for management of lactation” (MILEUTIS LTD., priority 2012, dated 2016).
Square brackets hold non-standard residues; d marks the D form. Ends that are not written are not given here. pS = N[C@@H](COP(=O)(O)O)C(=O)O

How the values were obtained:
Format in all cases: in vivo
[1] = tested on: mammary gland of lactating dairy cows; assay: Field study of involution induction: change in lactose content of milk samples after a single intramammary infusion at dry-off; conditions: for Changes in Lactose content in milk samples, Day 1, Mean / Changes in Lactose content in milk samples, Day 2, Mean / Changes in Lactose content in milk samples, Day 3, Mean: difference in lactose concentration vs Day 0, single intramammary infusion, peptides 4 mg in 10 ml, casein hydrolyzate 20 ml; for Changes in Lactose content in milk samples, Day 1, Mean: Day 1 post treatment; for Changes in Lactose content in milk samples, Day 2, Mean: Day 2 post treatment; for Changes in Lactose content in milk samples, Day 3, Mean: Day 3 post treatment
Experimental: (§1) A filed study was performed to assess the potential of a single intramammary dose of the synthetic peptides of the invention administered at dry (i.e. at the day in which milking is ceased), to induce rapid involution.
(§2) Total of 107 dairy cows were enrolled to the study, of which 45 received treatment and 62 served as a control. All cows were dairy cows at their first or further lactation that stand the inclusion/exclusion criteria. The study was a controlled blinded case-control study.
(§3) Case subjects received one dose by intramammary infusion of a particular peptide. Controls were lactating cows that received the following products by intramammary administration:
(§4) Five groups of 9 cows (total of 36 udder quarters per group) were scheduled as case groups. Each group was treated with one out of the five (5) phosphopeptides described in Example 1 hereinabove (P241210-01-01; 03; 05; 07 and 09). The peptides were administered once via intramammary infusion of 10 ml containing 4 mg peptide.
(§5) Set one: Five groups of 9 cows (total of 36 udder quarters per group) were scheduled as a first control set. Each group was treated with one out of the five (5) dephosphorylated peptides described in Example 1 hereinabove (P241210-01-02; 04; 06; 08 and 10). The peptides were administered once via intramammary infusion of 10 ml containing 4 mg peptide.
(§6) (i) Eleven cows (total of 44 udder quarters) treated with casein hydrolyzate (20 ml) administered once via intramammary infusion of 20 ml (around 1.8 mg/ml casein phosphopeptide (CPP), total=36 mg CPP for 20 ml)
(§7) All treatments (peptides, casein hydrolyzate and saline) were administered at the time point scheduled for cessation of milking (dry off). The day of administration was set as Day 0.
(§8) Sets of aseptic milk samples were collected in two separate vials once a day in the milking facility after the morning milking, on Day 0 and in post-treatment days 1, 2 and 3. The sampling time points were set to up to three days after treatment administration to ensure sufficient milk secretion for the measurements of all involution parameters. The volume of the samples was between 30 to 50 ml. The pH of the milk sample was measured in situ using a Cyberscan pH11 meter (Eutech Instruments, Singapore). The apparatus was calibrated each day by immersing the receptor in standard buffers of pH 7.0 and pH 4.01. Measurements were taken twice for each sample obtained from a mammary gland, with an interval of 30 seconds between measurements. pH measurement was repeated on-site by using the same sample vial. Before double-pH measurement, the milk sample vials were gently shaken three (3) times. After the pH measurement, the milk samples vials were kept in cool storage with a preservative product (Broad Spectrum Microtabs II—Bronopol and Metamycin—D&F Control System Inc., Two Technology Way, Norwood Mass. 02062 USA).
Lactose values in the milk samples were determined at the Central Laboratory of Milk Quality, Caesaria Industrial Park, Israel, according to ISO 2266211DF 198:2007.
Data from six quarters were excluded from the analysis of lactose changes. Data from one of those quarters were omitted due to a missing initial value. For the other five quarters, lactose concentrations taken during the three follow-up days could not be analyzed due to a rapid mammary involution process, resulting in non-sufficient milk sample for lactose analysis.
(§9) Endpoint Measures: pH, lactose and somatic cell counts (SCC) values from milk secretions at day 0 and during three (3) days post-treatment were taken. Results are described as the difference between the measures at each of the 3 days post treatment and the measured level at Day 0.
One of the most significant outcomes of involution in terms of milk composition is a reduction in lactose content. Thus, lactose concentration was also measured in the milk samples taken before and after peptide or CNH administration as described for the pH measurements hereinabove. […]

[2] = tested on: mammary gland of lactating dairy cows; assay: Field study of involution induction: change in somatic cell counts in milk samples after a single intramammary infusion at dry-off; conditions: for Changes in Somatic Cell Counts in milk samples, Day 1, Mean / Changes in Somatic Cell Counts in milk samples, Day 2, Mean / Changes in Somatic Cell Counts in milk samples, Day 3, Mean: change vs Day 0, calculated from log transformation of raw data, single intramammary infusion, peptides 4 mg in 10 ml, casein hydrolyzate 20 ml; for Changes in Somatic Cell Counts in milk samples, Day 1, Mean: Day 1 post treatment; for Changes in Somatic Cell Counts in milk samples, Day 2, Mean: Day 2 post treatment; for Changes in Somatic Cell Counts in milk samples, Day 3, Mean: Day 3 post treatment
Experimental: as §1, §2, §3, §4, §5, §6, §7, §8
Somatic cell count was also determined in milk samples by Fossomatic 360 (Foss Electric, Hillerod, Denmark), and based on guidelines from the USA National Mastitis Council. Laboratory Handbook on Bovine Mastitis. 1999. Ed. National Mastitis Council, Verona, Wis. 53593 USA.
as §9
Additional parameter that may be used to establish the progression of the involution process is the presence of somatic cells within the milk. The increase in cell count within the milk is the result of high degree of apoptotic epithelial cell death associated with involution. […] The results presented in the table were calculated from log transformation of the raw data that were highly variable.

[3] = tested on: mammary gland of lactating dairy cows; assay: Field study of involution induction: change of pH in milk samples after a single intramammary infusion at dry-off; conditions: for Changes of pH in milk samples, Day 1, Mean / Changes of pH in milk samples, Day 2, Mean / Changes of pH in milk samples, Day 3, Mean: difference in pH vs Day 0, single intramammary infusion, peptides 4 mg in 10 ml, casein hydrolyzate 20 ml; for Changes of pH in milk samples, Day 1, Mean: Day 1 post treatment; for Changes of pH in milk samples, Day 2, Mean: Day 2 post treatment; for Changes of pH in milk samples, Day 3, Mean: Day 3 post treatment
Experimental: as §1, §2, §3, §4, §5, §6, §7, §8, §9
Table 2 below summarizes the effect of the peptides examined and of casein hydrolyzate (CNH) on the pH of milk samples taken 1, 2 and 3 days after the one-dose treatment with each peptide or CNH. The results are presented as the difference in pH value between each of the days post treatment and Day 0 (before treatment).

Substance	Changes in Lactose content in milk samples, Day 1, Mean [1]	Changes in Lactose content in milk samples, Day 2, Mean [1]	Changes in Lactose content in milk samples, Day 3, Mean [1]	Changes in Somatic Cell Counts in milk samples, Day 1, Mean [2]	Changes in Somatic Cell Counts in milk samples, Day 2, Mean [2]	Changes in Somatic Cell Counts in milk samples, Day 3, Mean [2]	Changes of pH in milk samples, Day 1, Mean [3]	Changes of pH in milk samples, Day 2, Mean [3]	Changes of pH in milk samples, Day 3, Mean [3]	effect on the reduction of lactose content, in words ([1]; all time points examined, compared with CNH)	induction of involution, overall conclusion in words ([2]; conclusion from pH, lactose and somatic cell count results)	effect on the milk pH, in words ([3]; compared with the other peptides and casein hydrolyzate, particularly first 2 days after treatment)
Lys-Lys-Ser(P)-Ser(P)-NH2 (KK[pS][pS]-NH2; N-terminus assumed; SMILES NCCCC[C@H](NC(=O)[C@@H](N)CCCCN)C(=O)N[C@@H](COP(=O)(O)O)C(=O)N[C@@H](COP(=O)(O)O)C(N)=O) [C(p)]	−0.509	−1.427	−0.345	−0.129	0.961	0.195	0.066	0.046	0.119			
ESLSSSEE-NH2 [D]	−0.749	−1.387	−0.090	0.387	1.023	−0.249	0.000	−0.027	0.013			
Lys-Lys-Ser(P)-Leu-Ser(P)-Ser(P)-Ser(P)-NH2 (KK[pS]L[pS][pS][pS]-NH2; N-terminus assumed; SMILES CC(C)C[C@H](NC(=O)[C@H](COP(=O)(O)O)NC(=O)[C@H](CCCCN)NC(=O)[C@@H](N)CCCCN)C(=O)N[C@@H](COP(=O)(O)O)C(=O)N[C@@H](COP(=O)(O)O)C(=O)N[C@@H](COP(=O)(O)O)C(N)=O) [A(p)]	−0.462	−1.364	−1.771	0.592	1.212	1.829	0.016	0.020	0.118			
Lys-Lys-Ser(P)-Ser(P)-Ser(P)-NH2 (KK[pS][pS][pS]-NH2; N-terminus assumed; SMILES NCCCC[C@H](NC(=O)[C@@H](N)CCCCN)C(=O)N[C@@H](COP(=O)(O)O)C(=O)N[C@@H](COP(=O)(O)O)C(=O)N[C@@H](COP(=O)(O)O)C(N)=O) [B(p)]	−1.250	−2.013	−2.521	3.129	3.099	3.451	0.171	0.165	0.163	higher effect on the reduction of lactose content compared to the effect of CNH	highly effective in inducing involution	showed the most significant effect on the milk pH
